Structures are written as SMILES. Some results are limits rather than exact numbers.

These results are taken from patent publication EP1242382B1, “TRICYCLIC PROTEIN KINASE INHIBITORS” (Wyeth, priority 1999, dated 2001).

T1 sequence (P12931 whole entry): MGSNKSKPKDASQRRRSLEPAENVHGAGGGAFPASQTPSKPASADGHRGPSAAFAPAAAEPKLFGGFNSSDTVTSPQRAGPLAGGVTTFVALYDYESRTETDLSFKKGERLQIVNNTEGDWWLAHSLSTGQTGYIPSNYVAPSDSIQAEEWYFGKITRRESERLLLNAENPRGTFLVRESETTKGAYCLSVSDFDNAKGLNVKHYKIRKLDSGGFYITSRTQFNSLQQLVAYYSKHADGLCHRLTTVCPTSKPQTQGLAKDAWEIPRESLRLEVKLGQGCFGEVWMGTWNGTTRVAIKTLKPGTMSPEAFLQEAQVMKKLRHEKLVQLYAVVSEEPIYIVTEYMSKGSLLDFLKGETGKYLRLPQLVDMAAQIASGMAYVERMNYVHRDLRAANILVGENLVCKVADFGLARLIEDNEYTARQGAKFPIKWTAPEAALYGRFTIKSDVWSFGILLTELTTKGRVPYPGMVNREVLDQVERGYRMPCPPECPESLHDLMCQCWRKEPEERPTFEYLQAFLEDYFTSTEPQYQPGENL
T2 sequence (P04049 whole entry): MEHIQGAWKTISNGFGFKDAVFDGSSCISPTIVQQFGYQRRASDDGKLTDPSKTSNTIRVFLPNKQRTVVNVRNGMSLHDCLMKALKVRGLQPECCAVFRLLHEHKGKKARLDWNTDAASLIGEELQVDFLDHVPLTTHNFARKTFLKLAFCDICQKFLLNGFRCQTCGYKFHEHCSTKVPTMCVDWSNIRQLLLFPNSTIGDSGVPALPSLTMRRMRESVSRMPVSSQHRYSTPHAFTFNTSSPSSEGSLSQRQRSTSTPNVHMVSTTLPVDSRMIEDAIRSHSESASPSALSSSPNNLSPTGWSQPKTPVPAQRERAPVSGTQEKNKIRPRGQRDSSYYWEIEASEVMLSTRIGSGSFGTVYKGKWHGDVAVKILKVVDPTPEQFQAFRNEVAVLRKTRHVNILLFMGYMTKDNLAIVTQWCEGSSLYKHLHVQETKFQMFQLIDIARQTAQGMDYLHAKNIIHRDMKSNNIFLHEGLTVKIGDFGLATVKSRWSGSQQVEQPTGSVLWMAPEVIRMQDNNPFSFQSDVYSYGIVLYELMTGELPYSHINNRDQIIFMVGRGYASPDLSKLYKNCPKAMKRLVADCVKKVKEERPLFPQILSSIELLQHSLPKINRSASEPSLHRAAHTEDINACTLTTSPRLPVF

One test addresses T1, p60^c-src (Src) (Homo sapiens, UniProt P12931).
T1 construct: purchased Upstate Biotechnologies
Kind of test: Src kinase test procedure (Elisa format). It is filed as biochemical. Particulars: dose 0.1 µM; read-out: Src %Inh. The procedure:
Inhibitors of p60^c-src (partially purified preparation purchased from Upstate Biotechnologies) tyrosine kinase activity are analyzed in an Elisa format. […] HRP-conjugated anti-phosphotyrosine is used to detect phosphorylated peptide via a color reaction. Conditions recommended by the manufacturer are employed.
Reaction conditions: Five microliter aliquots of each compound prepared fresh at the time of the assay are added as a solution in 10mM HEPES pH 7.5, 10% DMSO to the reaction well. Thirty-five microliters of reaction mix containing Src, buffer and peptide/bovine serum albumin mix are added to the compound wells and incubated at 30°C for 10 minutes (reaction buffer: 50mM TrisHCl pH 7.5, 10mM MgCl2, 0.1mM EGTA, 0.5mM Na3VO4). The reaction is started by addition of 10 microliters of ATP, incubated at 30°C for 1 hour, and stopped by addition of 20 microliters of 0.5M EDTA. The reaction mixture with the phosphorylated peptide is then transferred to a streptavidin-coated microtiter plate (provided in the kit) and allowed to bind for 20 minutes. Unbound peptide and reaction mixture is decanted and the plate is washed with PBS six times. Horseradish peroxidase-conjugated phosphotyrosine antibody supplied in the kit is incubated with the plate for one hour, then decanted. The plate is again washed with PBS six times.
Turning to `COc1ccc2cc3c(Nc4ccc(Cl)cc4Cl)c(C#N)cnc3cc2c1` [Example 104, 4-(2,4-dichloroanilino)-8-methoxybenzo[g]quinoline-3-carbonitrile], the inhibition at 0.1 µM came to 30%.
As for `COc1ccc2cc3ncc(C#N)c(Nc4ccc(Cl)cc4Cl)c3cc2c1` [Example 103, 4-(2,4-Dichloroanilino)-7-methoxybenzo[g]quinoline-3-carbonitrile], the inhibition at 0.1 µM turned out to be 30%.
`COc1cc(Nc2c(C#N)cnc3nc4cc(OCCN5CCOCC5)c(OC)cc4cc23)c(Cl)cc1Cl` [Example 173, 4-(2,4-Dichloro-5-methoxyanilino)-7-methoxy-8-[2-(4-morpholinyl)ethoxy]benzo[b][1,8]naphthyridine-3-carbonitrile]: the inhibition at 0.1 µM is 33%.

The same test, now with this note: dose 5 µM; read-out: Src %Inh.
In the case of `COc1cc2cc3c(Nc4ccc(Cl)cc4Cl)c(C#N)cnc3nc2cc1OC` [Example 177, 4-(2,4-Dichloroanilino)-7,8-dimethoxybenzo[b] [1,8]naphthyridine-3-carbonitrile], the inhibition at 5 µM came out at 30%.

Still in this test, the particulars now being: dose 10 µM.
`N#Cc1cnc2c(oc3ccccc32)c1Nc1ccc(Cl)cc1F` [Example 86, 4-(4-Chloro-2-fluorophenylamino)benzo[4,5]furo[3,2-b]pyridine-3-carbonitrile]: the “Src %Inh” value came to 46%.

The same test, now with this note: dose 10 µM; read-out: Src %Inh.
As for `N#Cc1cnc2c(oc3ccccc32)c1Nc1ccc(Cl)cc1F` [Example 86, 4-(4-Chloro-2-fluorophenylamino)benzo[4,5]furo[3,2-b]pyridine-3-carbonitrile], the inhibition at 10 µM was 54%.
Take `COc1cc(Nc2c(C#N)cnc3c2sc2ccc([N+](=O)[O-])cc23)c(C)cc1Cl` [Example 75, 4-(4-Chloro-5-methoxy-2-methylphenylamino)-8-nitrobenzo[4,5]thieno[3,2-b]pyridine-3-carbonitrile]: the inhibition at 10 µM worked out at 0%.

In a further test the test system is Rat2 fibroblasts stably transformed with v-Src/Hu c-Src fusion gene. Kind of test: Anchorage independent Src-transformed fibroblast proliferation test procedure. It is filed as cell-based. The conditions noted are these: Rattus norvegicus, @ dose 10 µM, read-out: Src TF prolif %Inh. An excerpt: Anchorage Independent Src-transformed Fibroblast Proliferation Test Procedure: Rat2 fibroblasts stably transformed with a plasmid containing a CMV promotor controlled v-Src/Hu c-Src fusion gene in which the catalytic domain of human c-Src is inserted in place of the v-Src catalytic domain in the v-Src gene are used for the measurement of src dependent suspension growth.
Consider `COc1cc(Nc2c(C#N)cnc3cc4c(cc23)ncn4CCN2CCOCC2)c(C)cc1Cl` [Example 57, 8-(4-Chloro-5-methoxy-2-methylanilino)-3-[2-(4-morpholinyl)ethyl]-3H-imidazo[4,5-g]quinline-7-carbonitrile], for which the inhibition at 10 µM came out at 0%.

The same test, now with this note: Rattus norvegicus, the 3rd table c6, (a)-(d) = average of two to five runs, read-out: Src TF prolif IC50.
For `COc1cc(Nc2c(C#N)cnc3cc4cc(OCCN5CCN(C)CC5)c(OC)cc4cc23)c(Cl)cc1C` [Example 203, 4-(2-Chloro-5-methoxy-4-methylanilino)-7-methoxy-8-[2-(4-methyl-1-piperazinyl)ethoxy]benzo[g]quinoline-3-carbonitrile], the IC50 is 71 nM.
Take `COc1cc(Nc2c(C#N)cnc3cc4cc(OC)c(OCCN5CCN(C)CC5)cc4cc23)c(Cl)cc1F` [Example 201, 4-(2-Chloro-4-fluoro-5-methoxyanilino)-8-methoxy-7-[2-(4-methyl-1-piperazinyl)ethoxy]benzo[g]quinoline-3-carbonitrile]: the IC50 is 175 nM.
On the same count and under the same terms, in the case of `CCOc1cc2cc3c(Nc4cc(OC)c(Cl)cc4C)c(C#N)cnc3cc2cc1OCCN(CC(N)=O)CC(N)=O` [Example 194, 2-(Carbamoylmethyl-{2-[4-(4-chloro-5-methoxy-2-methylphenylamino)-3-cyano-7-ethoxybenzo[g]quinolin-8-yloxy]-ethyl}-amino)-acetamide] it was over 10000 nM; in that of `COc1cc(Nc2c(C#N)cnc3nc4cc(OCCN5CCOCC5)c(OC)cc4cc23)c(Cl)cc1Cl` [Example 173, 4-(2,4-Dichloro-5-methoxyanilino)-7-methoxy-8-[2-(4-morpholinyl)ethoxy]benzo[b][1,8]naphthyridine-3-carbonitrile], 3740 nM.
The same measure, in the same setting: next, `CCOc1cc2cc3c(Nc4cc(OC)c(Cl)cc4C)c(C#N)cnc3cc2cc1OCCN1CCOCC1` [Example 191, 4-(4-Chloro-5-methoxy-2-methylanilino)-7-ethoxy-8-[2-(4-morpholinyl)ethoxy]benzo[g]quinoline-3-carbonitrile]: 22 nM; `COc1cc(Nc2c(C#N)cnc3cc4cc(OCCn5ccnn5)c(OC)cc4cc23)c(Cl)cc1Cl` [Example 159, 4-(2,4-Dichloro-5-methoxyphenylamino)-7-methoxy-8-(2-[1,2,3]triazol-1-yl-ethoxy)benzo[g]quinoline-3-carbonitrile]: 73 nM; `CCOc1cc2cc3ncc(C#N)c(Nc4cc(OC)c(Cl)cc4C)c3cc2cc1OCCN1CCOCC1` [Example 190, 4-(4-Chloro-5-methoxy-2-methylanilino)-8-ethoxy-7-[2-(4-morpholinyl)ethoxy]benzo[g]quinoline-3-carbonitrile]: 170 nM.
Consider `COc1cc(Nc2c(C#N)cnc3cc4cc(OCCN5CCN(C)CC5)c(OC)cc4cc23)c(Cl)cc1F` [Example 211, 4-(2-Chloro-4-fluoro-5-methoxyanilino)-7-methoxy-8-[2-(4-methyl-1-piperazinyl)ethoxy]benzo[g]quinoline-3-carbonitrile], for which the IC50 came out at 128 nM.
On the same count and under the same terms, next, `COc1cc(Nc2c(C#N)cnc3cc4cc(OCCCN5CCOCC5)c(OC)cc4cc23)c(Cl)cc1Cl` [Example 157, 4-(2,4-dichloro-5-methoxyphenylamino)-7-methoxy-8-(3-morpholin-4-yl-propoxy)benzo[g]quinoline-3-carbonitrile]: 38 nM; `COc1cc(Nc2c(C#N)cnc3cc4cc(OC)c(OCCN5CCN(C)CC5)cc4cc23)c(Cl)cc1C` [Example 202, 4-(2-Chloro-5-methoxy-4-methylanilino)-8-methoxy-7-[2-(4-methyl-1-piperazinyl)ethoxy]benzo[g]quinoline-3-carbonitrile]: 68 nM.
On the same count and under the same terms, next, `COc1cc(Nc2c(C#N)cnc3cc4cc(OC)c(OCCN5CCC(O)CC5)cc4cc23)c(Cl)cc1C` [Example 207, 4-(2-Chloro-5-methoxy-4-methylanilino)-8-methoxy-7-[2-(4-hydroxy-1-piperidinyl)ethoxy]benzo[g]quinoline-3-carbonitrile]: 929 nM; `COc1cc(Nc2c(C#N)cnc3nc4cc(OCCCl)c(OC)cc4cc23)c(Cl)cc1Cl` [Example 172, 8-(2-Chloroethoxy)-4-(2,4-dichloro-5-methoxyanilino)-7-methoxybenzo[b][1,8]naphthyridine-3-carbonitrile]: 1880 nM.
`COc1cc(Nc2c(C#N)cnc3cc4cc(OC)c(OCCN5CCOCC5)cc4cc23)c(Cl)cc1F` [Example 209, 4-(2-Chloro-4-fluoro-5-methoxyanilino)-8-methoxy-7-[2-(4-morpholinyl)ethoxy]benzo[g]quinoline-3-carbonitrile]: the IC50 is 309 nM.
As for `COc1cc(Nc2c(C#N)cnc3cc4cc(OCCn5nccn5)c(OC)cc4cc23)c(Cl)cc1Cl` [Example 158, 4-(2,4-Dichloro-5-methoxyphenylamino)-7-methoxy-8-(2-[1,2,3]triazol-2-yl-ethoxy)benzo[g]quinoline-3-carbonitrile], the IC50 was determined as 67 nM.
Consider `COc1cc(Nc2c(C#N)cnc3nc4cc(OC)c(OC)cc4cc23)c(Cl)cc1Cl` [Example 165, 4-(2,4-Dichloro-5-methoxyanilino)-7,8-dimethoxybenzo[b] [1,8]naphthyridine-3-carbonitrile], for which the half-inhibitory concentration (IC50) was over 10000 nM.

Another test addresses T2, Raf-1 (c-Raf) (Homo sapiens, UniProt P04049).
T2 construct: Sf9 insect cell lysate containing full length 6his-tagged recombinant human c-Raf; host or cells: c-Raf: Sf9 insect cell lysate; MEK1 and MAPK: E. coli
Kind of test: Raf1 kinase cascade assay procedure. It is filed as biochemical.
Settings: not given
How it is done: (Specific Activity: ~200U/ml). Human Non-active Mek-1-GST and human GST-MAP kinase (recombinant proteins produced in E. coli).
• 1. Assay Dilution Buffer (ADB): 20mM MOPS, pH 7.2, 25mM β-glycerol phosphate, 5mM EGTA, 1mM sodium orthovanadate, 1mM dithiothreitol. • 2. Magnesium/ATP Cocktail: 500µM cold ATP and 75 mM magnesium chloride in ADB. • 4. Active Kinase: Human Active c-Raf: Use at 0.4U per assay point • 5. Non-active GST-MEK1: Use at 0.1µg per assay point. • 6. Non-active GST-p42 MAP Kinase: Use at 1.0 µg per assay point
• 1. TBST - Tris (50 mM, pH 7.5), NaCl (150 mM), Tween-20 (0.05 %) • 2. Superblock (Pierce) • 3. Anti-GST Ab (Pharmacia) • 4. Anti-Phospho MAPK (Sigma) • 5. Anti-Mouse Ab / Europium conjugate (Wallac)
First Stage: c-Raf Dependent Activation of GST-MEK and GST-MAPK • 1. Add […] of ADB per assay (i.e. per well of a 96 well plate) • 2. Add 10 ml of 0.5 mM cold ATP and 75 mM magnesium chloride in ADB. • 3. Add 2 ml of c-Raf (0.4U/assay), in conjunction with 1.6ml non-active MEK1 ([…]). • 4. Add 4 ml of non-active GST-p42 MAP Kinase (1.0 mg/assay). • 5. Incubate for 60 minutes at 30°C in a shaking incubator. • 6. Transfer this mixture to an anti-GST Ab coated 96 well plate (Nunc Immunosorb plates coated o/n with a-GST, then blocked with Pierce Superblock). • 7. Incubate for 60 minutes at 30°C in a shaking incubator Wash 3X with TBST, add Anti-Phospho MAPK (Sigma) (1:3000) • 6. Incubate for 60 minutes at 30°C in a shaking incubator • 7. Wash 3X with TBST, add Anti-Mouse Ab / Europium conjugate (Wallac) (1:500) • 8. Incubate for 60 minutes at 30°C in a shaking incubator • 9. Wash 3X with TBST, Read plates in Wallac Victor model Plate Reader. • 10. Collect data analyze in Excel for single point and IC50 determinations.
Typically Raf-1 assay is run at compound concentrations from 10 µM to 1 nM in half log dilutions. (% inhibition is determined for each compound concentration).
`N#Cc1cnc2cc3ccccc3cc2c1Nc1ccc(Oc2ccccc2)cc1` [Example 3, 4-(4-Phenoxyanilino)benzo[g]quinoline-3-carbonitrile] showed an IC50 of 90 nM.
On the same count and under the same terms, in the case of `COc1cc(Nc2c(C#N)cnc3cc4cc(OCCN5CCOCC5)c(OC)cc4cc23)c(Cl)cc1Cl` [Example 129, 4-(2,4-dichloro-5-methoxyanilino)-7-methoxy-8-[2-(4-morpholinyl)ethoxy]benzo[g]quinoline-3-carbonitrile] it was 300 nM.
